Results taken from patent US20080039442A1, “Compounds With Kv4 Ion Channel Activity” (Devgen NV, priority 2004, published 2008).
Read-outs that look alike come from different tables or passages of the source.

Assays:
[1] = biological target: T1, human Kv4.3/KChIP2.2 potassium channel (Homo sapiens, UniProt Q9UK17); assay: Whole cell patch clamp, CHO-K1 cells stably expressing Kv4.3/KChIP2.2; format: cell-based; conditions: CHO-K1, 1 μM
T1 construct: expressed in transfected cells
T1 sequence (Q9UK17 1-655): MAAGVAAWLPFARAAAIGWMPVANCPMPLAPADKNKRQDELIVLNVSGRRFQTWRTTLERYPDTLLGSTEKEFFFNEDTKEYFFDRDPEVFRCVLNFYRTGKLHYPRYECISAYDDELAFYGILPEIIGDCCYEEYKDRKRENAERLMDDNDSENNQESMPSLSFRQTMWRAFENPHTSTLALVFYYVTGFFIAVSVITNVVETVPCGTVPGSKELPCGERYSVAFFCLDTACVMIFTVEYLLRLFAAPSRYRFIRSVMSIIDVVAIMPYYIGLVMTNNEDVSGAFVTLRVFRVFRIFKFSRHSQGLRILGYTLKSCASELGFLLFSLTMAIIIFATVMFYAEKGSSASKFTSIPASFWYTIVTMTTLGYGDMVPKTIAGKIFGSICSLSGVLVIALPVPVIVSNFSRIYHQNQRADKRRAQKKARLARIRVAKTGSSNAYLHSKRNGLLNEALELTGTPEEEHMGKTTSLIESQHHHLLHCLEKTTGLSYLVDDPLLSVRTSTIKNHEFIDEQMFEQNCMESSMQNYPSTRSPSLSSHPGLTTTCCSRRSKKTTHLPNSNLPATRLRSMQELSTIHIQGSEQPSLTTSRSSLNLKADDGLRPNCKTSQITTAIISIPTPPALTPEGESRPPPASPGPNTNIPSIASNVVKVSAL
T1 sequence (Q9NS61 1-270 partner): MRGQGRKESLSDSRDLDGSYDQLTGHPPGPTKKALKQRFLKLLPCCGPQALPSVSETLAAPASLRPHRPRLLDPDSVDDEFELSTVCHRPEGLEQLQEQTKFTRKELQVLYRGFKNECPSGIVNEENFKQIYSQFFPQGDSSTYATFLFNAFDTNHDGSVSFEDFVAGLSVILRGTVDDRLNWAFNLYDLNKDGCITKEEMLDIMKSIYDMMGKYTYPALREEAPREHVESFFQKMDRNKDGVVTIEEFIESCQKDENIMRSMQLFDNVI
Description: For this experiment, a recombinant CHO-K1 cell line stably expressing the human Kv4.3/KChIP2.2 potassium channel was used.
Protocol B: The cells were cultured in 94 mm culture dishes under the culturing conditions of 5% CO2 and 37° C. Subculturing was performed every 3-4 days, by removing the media and then rising the dish with 8 ml PBS (phosphate buffered saline). The PBS was removed and 1 ml Trypsin/EDTA was added to the cells. The cells were incubated about 2 min at 37° C. or 5 min at room temperature and then the dish was rapped to detach and singularize the cells. To inactivate the enzyme 9 ml of media was added and the solution was pipetted up and down to break up clumps of cells. Part of the suspension was then transferred to a new 94 mm dish and media was added to a final volume of 8 ml. If necessary the cells could be seeded onto 35 mm or 94 mm dishes (2 ml media per 35 mm dish and 8 ml media per 94 mm dish). The media was changed every 2-3 days. The media used was the solution for culturing the cells described above. For stable cells antibiotic G418, Hygromycin, Blasticidin, or Zeocin were not added.
The preparation of cells for electrophysiological experiments was performed as described in protocol C hereunder.
Protocol C: The transfected cells and stable cells were transferred from 35 mm cell culture dishes onto coverslips using cold PBS: The media was removed and 0.3 ml of PBS (4-10° C.) was added. The cells were incubated 5 min at room temperature. The dish was rapped to detach and singularize the cells and 1.7 ml media was added and the solution pipetted up and down to break up clumps of cells. Part of the cell suspension was then transferred to a 35 mm dish with coverslips and media. The transfected cells and stable cells could also be transferred from 35 mm cell culture dishes onto coverslips using trypsin: The media was removed and the dish rinsed with 3 ml PBS. The PBS was removed and 0.3 ml 1× Trypsin/EDTA was added and the cells incubated 5 min at room temperature. The dish was rapped to detach and singularize the cells and 1.7 ml media was added and the solution pipetted up and down to break up clumps of cells. Part of the cell suspension was then transferred to a 35 mm dish with coverslips and media.
10 mM stock solutions of the compounds were prepared in DMSO. Solutions of the compounds were prepared by dilution of stock solution in bath solution. If the required stock solution volume was theoretically below 1 μl, bath solutions with higher compound concentration were used for dilution. The maximal DMSO concentration during experiments was 0.1% (v/v).
For patch clamp experiments, the following solutions in demineralized water as vehicle were used (concentration in mM).
Bath (external) solution: 4 KCl, 135 NaCl, 2 CaCl2, 1 MgCl2, 10 D(+)-Glucose, 5 HEPES, pH 7.4 (NaOH).
Pipette (internal) solution: 130 KCl, 1 MgCl2, 10 EGTA, 5 Na2ATP, 5 HEPES, pH 7.4 (KOH).
Experiments were performed using a patch clamp set-up.
Measurements were performed at room temperature (20-25° C.). […] Each cell acted as its own control. The effect of compounds on Kv4.3/KChIP2.2 mediated currents was investigated at one concentration ([…]) with two replicates each (c=1, n=2).
The test protocols are illustrated in FIG. 1 and Table 4. […] Each test protocol consisted of 4 segments.
Subsequently, 14 test pulses (series 1; FIG. 1b and Table 4b) were applied at 0.1 Hz under constant superfusion with bath solution. The protocol was initiated by a voltage jump to −100 mV (400 ms) to achieve full inactivation. Then the Kv4.3/KChIP2.2 channels were transferred to the open state by depolarization to +40 mV for 300 milliseconds (activation). Only cells generating current amplitudes between 1 nA and 50 nA were used for the experimental procedure. No or negligible rundown was observed.
Then, 36 test pulses (series 2) were applied at 0.1 Hz under constant superfusion with the compound dissolved in bath solution. […]

[2] = read-out: Kv4.3 charge in %: remaining current measured after application of the compound and relative to the blank
[3] = read-out: Kv4.3 peak in %: remaining peak height measured after application of the compound and relative to the blank

SMILES	melting point	remaining activity at 1 µM [1, 2]	remaining activity at 1 µM [1, 3]
O=C(Nc1ccc(Cn2cccn2)cc1)c1cc2cc(Cl)ccc2o1 [Compound 105, 5-chloro-benzofuran-2-carboxylic acid (4-pyrazol-1-ylmethyl-phenyl)-amide]	197.4 to 198.8 °C	90%	99%
CC(=O)Oc1ccc(CNC(=O)c2cc3cc(Cl)ccc3o2)cc1 [Compound 33, acetic acid 4-{[(5-chloro-benzofuran-2-carbonyl)-amino]-methyl}-phenyl ester]	162.5 to 164.5 °C	89%	100%
COc1ccc(CNC(=O)c2cc3cc(Cl)ccc3o2)c(O)c1 [Compound 108, 5-chloro-benzofuran-2-carboxylic acid 2-hydroxy-4-methoxy-benzylamide]	173.8 to 176.2 °C	85%	99%
Cc1ccc(C)c(CNC(=O)c2cc3cc(Cl)ccc3o2)c1 [Compound 90, 5-chloro-benzofuran-2-carboxylic acid 2,5-dimethyl-benzylamide]	123.1 to 124 °C		
COc1ccc(CNC(=O)c2cc3cc(Cl)ccc3[nH]2)c(OC)c1 [Compound 111, 5-chloro-1H-indole-2-carboxylic acid 2,4-dimethoxy-benzylamide]	205.7 to 209.3 °C		
Cc1cc(Cl)cc(Cl)c1CNC(=O)c1cc2cc(Cl)ccc2o1 [Compound 119, 5-chloro-benzofuran-2-carboxylic acid 2,4-dichloro-6-methyl-benzylamide]	210 to 212 °C		
COC(=O)c1cccc(CNC(=O)c2cc3cc(Cl)ccc3o2)c1 [Compound 65, 5-{[(5-chloro-benofuran-2-carbonyl)-amino]-methyl}-benzoic acid methyl ester]	154 to 155.6 °C		
O=C(NCc1ccc(-c2cnns2)cc1)c1cc2cc(Cl)ccc2o1 [Compound 91, 5-chloro-benzofuran-2-carboxylic acid 4-[1,2,3]thiadiazol-5-yl-benzylamide]	178.1 to 181.8 °C		
CSc1ccc(CNC(=O)c2cc3cc(Cl)ccc3o2)cc1 [Compound 61, 5-chloro-benzofuran-2-carboxylic acid 4-methylsulfanyl-benzylamide]	159 to 161 °C		
Cc1c(C(=O)NCc2ccc(OC(F)(F)F)cc2)sc2ccc(Cl)cc12 [Compound 117]	159.2 to 162.4 °C		
O=C(NCc1cccc(OC(F)(F)F)c1)c1cc2cc(Cl)ccc2o1 [Compound 88, 5-chloro-benzofuran-2-carboxylic acid 3-trifluoromethoxy-benzylamide]	133.5 to 137.9 °C		
CN(C)C(=O)c1cccc(CNC(=O)c2cc3cc(Cl)ccc3o2)c1 [Compound 66, 5-chloro-benzofuran-2-carboxylic acid 3-dimethylcarbamoyl-benzylamide]	105.1 to 109.4 °C		
COc1ccc(CNC(=O)c2oc3ccc(Cl)cc3c2NC(C)=O)c(OC)c1 [Compound 115, 3-acetylamino-5-chloro-benzofuran-2-carboxylic acid 2,4-dimethoxy-benzylamide]	165.5 to 170.3 °C		

Continued, values first:

melting point	remaining activity at 1 µM [1, 2]	remaining activity at 1 µM [1, 3]	SMILES
127.7 to 129.1 °C	59%	86%	O=C(c1cc2cc(Cl)ccc2o1)N1CCc2ccccc2C1 [Compound 27, (5-chloro-benzofuran-2-yl)-(3,4-dihydro-1H-isoquinolin-2-yl)-methanone]
111.3 to 116.6 °C	73%	89%	O=C(c1cc2cc(Cl)ccc2o1)N1CC=C(c2ccc(F)cc2)CC1 [Compound 93, (5-chloro-benzofuran-2-yl)-[4-(4-fluoro-phenyl)-3,6-dihydro-2H-pyridin-1-yl]-methanone]
135 to 137.1 °C			O=C(c1ccc(F)cc1)C1CCN(C(=O)c2cc3cc(Cl)ccc3o2)CC1 [Compound 102]
192.3 to 193.8 °C			O=C(NCc1ccc(Br)cc1)c1cc2cc(Cl)ccc2o1 [Compound 77, 5-chloro-benzofuran-2-carboxylic acid 4-bromo-benzylamide]
146.1 to 147.4 °C			COc1ccccc1C1CCN(C(=O)c2cc3cc(Cl)ccc3o2)CC1 [Compound 95, (5-chloro-benzofuran-2-yl)-[4-(2-methoxy-phenyl)-piperidin-1-yl]-methanone]
123.3 to 125.4 °C			O=C(c1cc2cc(Cl)ccc2o1)N1CCCC1c1ccccc1 (centres unmarked) [Compound 103, (5-chloro-benzofuran-2-yl)-(2-phenyl-pyrrolidin-1-yl)-methanone]
129.8 to 132.8 °C			O=C(NCc1ccccc1-c1ccccc1)c1cc2cc(Cl)ccc2o1 [Compound 72, 5-chloro-benzofuran-2-carboxylic acid (biphenyl-2-ylmethyl)-amide]
118.5 to 120.7 °C			CC[C@@H](NC(=O)c1cc2cc(Cl)ccc2o1)c1ccccc1 [Compound 58, 5-chloro-benzofuran-2-carboxylic acid ((R)-1-phenyl-propyl)-amide]
121.1 to 124.3 °C			O=C(NCC1COc2ccccc2O1)c1cc2cc(Cl)ccc2o1 (centres unmarked) [Compound 113, 5-chloro-benzofuran-2-carboxylic acid (2,3-dihydro-benzo[1,4]dioxin-2-ylmethyl)-amide]
76.5 to 79.1 °C			COC(=O)[C@@H](NC(=O)c1cc2cc(Cl)ccc2o1)c1ccccc1 [Compound 85, (S)[(5-chloro-benzofuran-2-carbonyl)-amino]-phenyl-acetic acid methyl ester]
114.6 to 116.2 °C			O=C(c1cc2cc(Cl)ccc2o1)N1CCC(Cc2ccccc2)CC1 [Compound 101, (4-benzyl-piperidin-1-yl)-(5-chloro-benzofuran-2-yl)-methanone]
163.1 to 166.2 °C			O=C(NCc1ccncc1)c1cc2cc(Cl)ccc2o1 [Compound 81, 5-chloro-benzofuran-2-carboxylic acid (pyridin-4-ylmethyl)-amide]
